This note sets out measurements from patent publication US20120230951A1 (priority 2011, published 2012).

The test system of the assay is GT-1a pRLuc H771b 75 S/I subgenomic replicon cell line. The experiment in a line: HCV GT-1a replicon luciferase reporter assay. In kind it is cell-based. The settings on record: Hepatitis C virus, GT1A, 72 h, read-out: GT-1a (IC50) (nM). From the text: Determination of compounds HCV GT1b inhibitory replicon activity using the replicon luciferase reporter assay
The 2209-23 cell line was developed at Roche by stable transfection of the hepatoma cell line Huh-7 with a GT-1b Con1 subgenomic bicistronic replicon as previously described. Subgenomic replicon cell line was established in cured Huh7 cells, obtained from R. Bartenschlager (J. Virol. 2003 March; 77 (5):3007-19) The GT-1a H77 subgenomic replicon vector pRLuc H771b 75 S/I, was created by replacing the non structural region of the GT-1b Con1 subgenomic replicon by the one of the H77 strain, except for the first 75 amino acids of the NS3 protein that are from GT-1b Con1 strain. (J. Virol. 2001 77:5352-59) The GT-1a pRLuc H771b 75 S/I subgenomic replicon cell line was established in cured Huh7 cells, obtained from R. Bartenschlager. (J. Virol. 2003 March; 77 (5):3007-19)
All the subgenomic replicon cell lines were cultured in Dulbecco's Modified Eagle Medium (DMEM-Glutamax™-I; Invitrogen Cat #10569-010). The medium was supplemented with 10% Fetal Bovine Serum (Invitrogen Cat #10082-147), 1% penicillin/streptomycin (Mediatech Cat #30-002-CI) and 500 μg/ml of G418 (Mediatech Cat #30-234-CI). Cells were maintained at 37° C. in a humidified 5% CO2 atmosphere.
2209-23 cells were plated at a cell density of 5000 cells per well in 96 well plates (Becton Dickinson, Cat #35 3296). Cells were plated in 90 μl of Dulbecco's Modified Eagle Medium (DMEM-Glutamax™-I), (Invitrogen Cat #10569-010) medium was supplemented with 5% Fetal Bovine Serum (Invitrogen Cat #10082-147), 1% penicillin/streptomycin (Mediatech Cat #30-002-CI). The pRluc H771b 75 S/I cells were plated in 96-well plate at 3000 cells/well in DMEM-Glutamax™-I containing 5% FBS and 1% penicillin/streptomycin in 90 μl final volume. Cells were allowed to equilibrate for 24 hours at 37° C. and 5% CO2 at which time compounds were added. Compounds (or medium as a control) were added 24 hours post-plating in 3 fold dilutions at a final DMSO concentration of 1% in 10 ul volume. Renilla luciferase reporter signal was read 72 hours after addition of compounds using the Renilla Luciferase Assay System (Promega, cat #E2820). EC50 values were defined as the compound concentration at which a 50% reduction in the levels of renilla luciferase reporter was observed as compared to control samples in the absence of compound and was determined by non-linear fitting of compound dose-response data. The EC50 was approximated if maximum percentage inhibition was less than 90% and more than 70%.
In general terms: A replicon is a self-replicating genome or part of one, used to study replication in cells.

Counter-ions that a name gives are not always drawn.

On to `COC(=O)N[C@H]1CCc2cccc3c2N(C1=O)[C@H](c1ncc(-c2cnc4cc(-c5ccc(-c6cnc([C@@H]7CCCN7C(=O)[C@@H](NC(=O)OC)C(C)C)[nH]6)cc5)ccc4c2)[nH]1)C3` [Compound I-18, ((2S,5S)-2-{5-[7-(4-{2-[(S)-1-((S)-2-Methoxycarbonylamino-3-methyl-butyryl)-pyrrolidin-2-yl]-3H-imidazol-4-yl}-phenyl)-quinolin-3-yl]-1H-imidazol-2-yl}-4-oxo-1,2,4,5,6,7-hexahydro-azepino[3,2,1-hi]indol-5-yl)-carbamic acid methyl ester trifluoacetic acid salt], for which the IC50 was determined as 21.6 nM.
Consider `CC[C@H](C)[C@H](NC(=O)OC)C(=O)N1CCC[C@H]1c1ncc(-c2ccc3nc(-c4ccc(-c5cnc([C@@H]6Cc7cccc8c7N6C(=O)[C@@H](NC(=O)OC)CC8)[nH]5)cc4)cnc3c2)[nH]1` [Compound I-53, ((2S,5S)-2-{5-[4-(6-{2-[(S)-1-((2S,3S)-2-Methoxycarbonylamino-3-methyl-pentanoyl)-pyrrolidin-2-yl]-3H-imidazol-4-yl}-quinoxalin-2-yl)-phenyl]-1H-imidazol-2-yl}-4-oxo-1,2,4,5,6,7-hexahydroazepino[3,2,1-hi]indol-5yl)-carbamic acid methyl ester], for which the IC50 was 1.36 nM.
Under `COC(=O)N[C@H]1CCc2cccc3c2N(C1=O)[C@H](c1ncc(-c2ccc(-c4cnc5cc(-c6cnc([C@@H]7CCCN7C(=O)[C@@H](NC(=O)OC)C(C)(C)C)[nH]6)ccc5n4)cc2)[nH]1)C3` [Compound I-54, ((2S,5S)-2-{5-[4-(6-{2-[(S)-1-((S)-2-Methoxycarbonylamino-3,3-dimethyl-butyryl)-pyrrolidin-2-yl]-3H-imidazol-4-yl}-quinoxalin-2-yl)-phenyl]-1H-imidazol-2-yl}-4-oxo-1,2,4,5,6,7-hexahydro-azepino[3,2,1-hi]indol-5-yl)-carbamic acid methyl ester] stands 0.949 nM; under `CC[C@H](C)[C@H](NC(=O)OC)C(=O)N1CCC[C@H]1c1ncc(-c2ccc(-c3cnc4cc(-c5cnc([C@@H]6Cc7cccc8c7N6C(=O)[C@@H](NC(=O)OC)CC8)[nH]5)ccc4n3)cc2)[nH]1` [Compound I-56, ((2S,5S)-2-{5-[2-(4-{2-[(S)-1-((2S,3S)-2-Methoxycarbonylamino-3 methyl-pentanoyl)-pyrrolidin-2-yl]-3H-imidazol-4-yl}-phenyl)quinoxalin-6-yl]-1H-imidazol-2-yl}-4-oxo-1,2,4,5,6,7-hexahydro-azepino[3,2,1-hi]indol-5-yl)-carbamic acid methyl ester], 3 nM; under `COC(=O)N[C@H]1CCc2cccc3c2N(C1=O)[C@H](c1nc2ccc(-c4ccc(-c5ccc(-c6cnc([C@@H]7CC(F)(F)CN7C(=O)[C@@H](NC(=O)OC)C(C)C)[nH]6)cc5)nc4)cc2[nH]1)C3` [Compound I-13, ((2S,5S)-2-{6-[6-(4-{2-[(S)-1-((S)-2-Methoxycarbonylamino-3-methyl-butyryl)-4,4-difluoro-pyrrolidin-2-yl]-3H-imidazol-4-yl}-phenyl)-pyridin-3-yl]-1H-benzoimidazol-2-yl}-4-oxo-1,2,4,5,6,7-hexahydro-azepino[3,2,1-hi]indol-5-yl)-carbamic acid methyl ester], 41.8 nM.
Under `COC(=O)N[C@H]1CCc2cccc3c2N(C1=O)[C@H](c1ncc(-c2ccc(-c4ccc5cc(-c6cnc([C@@H]7C[C@H](C#N)CN7C(=O)[C@@H](NC(=O)OC)C(C)C)[nH]6)ccc5c4)cc2)[nH]1)C3` [Compound I-41, {(2S,5S)-2-{5-[4-(6-{2-[(2S,4S)-4-Cyano-1-((S)-2-methoxycarbonylamino-3-methyl-butyryl)-pyrrolidin-2-yl]-3H-imidazol-4-yl}-naphthalen-2-yl)-phenyl]-1H-imidazol-2-yl]-4-oxo-1,2,4,5,6,7-hexahydro-azepino[3,2,1-hi]indol-5-yl}-carbamic acid methyl ester] stands 2.49 nM.
In the case of `COC(=O)N[C@H]1CCc2cccc3c2N(C1=O)[C@H](c1ncc(-c2ccc(-c4ccc(-c5cnc([C@@H]6CC7(CN6C(=O)[C@@H](NC(=O)OC)C(C)C)OCCO7)[nH]5)cc4)cc2)[nH]1)C3` [Compound I-8, {(2S,5S)-2-[5-(4′-{2-[(S)-7-((S)-2-Methoxycarbonylamino-3-methyl-butyryl)-1,4-dioxa-7-aza-spiro[4.4]non-8-yl]-3H-imidazol-4-yl}-biphenyl-4-yl)-1H-imidazol-2-yl]-4-oxo-1,2,4,5,6,7-hexahydro-azepino[3,2,1-hi]indol-5-yl}-carbamic acid methyl Ester] it was 2.54 nM; in that of `COC(=O)N[C@H]1CCc2cccc3c2N(C1=O)[C@H](c1ncc(-c2ccc(-c4ccc(-c5nnc([C@@H]6CCCN6C(=O)[C@@H](NC(=O)OC)C(C)C)[nH]5)cc4)cc2)[nH]1)C3` [Compound I-61, {(2S,5S)-2-[5-(4′-{5-[(S)-1-((S)-2-Methoxycarbonylamino-3-methyl-butyryl)-pyrrolidin-2-yl]-4H-[1,2,4]triazol-3-yl}-biphenyl-4-yl)-1H-imidazol-2-yl]-4-oxo-1,2,4,5,6,7-hexahydro-azepino[3,2,1-hi]indol-5-yl}-carbamic acid methyl ester], 67.2 nM; in that of `CC[C@H](NC(=O)OC)C(=O)N1CCC[C@H]1c1ncc(-c2ccc(-c3ccc(-c4cnc([C@@H]5Cc6cccc7c6N5C(=O)[C@@H](NC(=O)OC)CC7)[nH]4)cc3)cc2)[nH]1` [Compound I-45], 17.1 nM.
Turning to `COC(=O)N[C@H]1CCc2cccc3c2N(C1=O)[C@H](c1ncc(-c2ccc(-c4ccc5cc(-c6cnc([C@@H]7CC(F)(F)CN7C(=O)[C@@H](NC(=O)OC)C(C)C)[nH]6)ccc5c4)cc2)[nH]1)C3` [Compound I-42, {(2S,5S)-2-{5-[4-(6-{2-[(S)-4,4-Difluoro-1-((S)-2-methoxycarbonylamino-3-methyl-butyryl)-pyrrolidin-2-yl]-3H-imidazol-4-yl}-naphthalen-2-yl)-phenyl]-1H-imidazol-2-yl}-4-oxo-1,2,4,5,6,7-hexahydo-azepino[3,2,1-hi]indol-5-yl}-carbamic acid methyl ester], the IC50 stood at 1.17 nM.
Under `COC(=O)N[C@H]1CCc2cccc3c2N(C1=O)[C@H](c1ncc(-c2cnc(-c4ccc5cc(-c6cnc([C@@H]7CCCN7C(=O)[C@@H](NC(=O)OC)C(C)C)[nH]6)ccc5c4)nc2)[nH]1)C3` [Compound I-17, ((2S,5S)-2-{5-[2-(6-{2-[(S)-1-((S)-2-Methoxycarbonylamino-3-methyl-butyryl)-pyrrolidin-2-yl]-3H-imidazol-4-yl}-naphthalen-2-yl)-pyrimidin-5-yl]-1H-imidazol-2-yl}-4-oxo-1,2,4,5,6,7-hexahydro-azepino[3,2,1-hi]indol-5-yl)-carbamic acid methyl ester] stands 3.2 nM; under `COC(=O)NC(C(=O)N1CCCC1c1ncc(-c2ccc(-c3ccc(-c4cnc([C@@H]5Cc6cc(C#N)cc7c6N5C(=O)[C@@H](NC(=O)OC)CC7)[nH]4)cc3)cc2)[nH]1)C(C)C` (stereo in doubt) [Compound I-26, {(2S,5S)-9-Cyano-2-[5-(4′-{2-[(R)-1-((R)-2-methoxycarbonylamino-3-methyl-butyryl)-pyrrolidin-2-yl]-3H-imidazol-4-yl}-biphenyl-4-yl)-1H-imidazol-2-yl]-4-oxo-1,2,4,5,6,7-hexahydro-azepino[3,2,1-hi]indol-5-yl}-carbamic acid methyl ester], 7.71 nM; under `COC(=O)N[C@H]1CCc2cccc3c2N(C1=O)[C@H](c1ncc(-c2ccc(-c4ccc(-c5cnc([C@@H]6COCCN6C(=O)[C@@H](NC(=O)OC)C(C)C)[nH]5)cc4)cc2)[nH]1)C3` [Compound I-64, {(2S,5S)-2-[5-(4′-{2-[(R)-4-((S)-2-Methoxycarbonylamino-3-methyl-butyryl)-morpholin-3-yl]-3H-imidazol-4-yl}-biphenyl-4-yl)-1H-imidazol-2-yl]-4-oxo-1,2,4,5,6,7-hexahydro-azepino[3,2,1-hi]indol-5-yl}-carbamic acid methyl ester], 9.87 nM.

In general, IC50 refers to the concentration that inhibits the measured activity by half.
